Earlier results on one compound are cited in US11642308B2, “Ready to use liquid formulation” (priority 2020, dated 2023).

The conditions of the data set: ≈25° C. and ≈1 bar.

On to `O=O` [oxygen], for which the solubility in water result is on record as “about 40 mg/L”.
